Experimental data: the NIST ThermoML archive (doi:10.1016/j.jct.2018.07.015)
± gives the expanded uncertainty stated by the source.

Test: mn = molality of the nth substance listed, in mol/kg
Conditions: 100 kPa, Liquid; for speed of sound: Frequency=3 MHz, Single path-length method; for mass density: Vibrating tube method

`OCC(O)CO` [glycerol] + O showed a speed of sound (293.15 K, m1 = 0.01) of 1483.2 ± 1 m/s, a speed of sound (293.15 K, m1 = 0.03) of 1484 ± 1 m/s and a speed of sound (293.15 K, m1 = 0.05) of 1484.8 ± 1 m/s. For the same compound, the speed of sound (293.15 K, m1 = 0.07) was 1485.5 ± 1 m/s, the mass density (293.15 K, m1 = 0.01) was 998.452 ± 0.3 kg/m3 and the mass density (293.15 K, m1 = 0.03) was 998.865 ± 0.3 kg/m3. For the same compound, the mass density (293.15 K, m1 = 0.05) was 999.29 ± 0.3 kg/m3, the mass density (293.15 K, m1 = 0.07) was 999.691 ± 0.3 kg/m3 and the speed of sound (298.15 K, m1 = 0.01) was 1497 ± 1 m/s. For the same compound, the speed of sound (298.15 K, m1 = 0.03) was 1497.8 ± 1 m/s, the speed of sound (298.15 K, m1 = 0.05) was 1498.6 ± 1 m/s and the speed of sound (298.15 K, m1 = 0.07) was 1499.3 ± 1 m/s. For the same compound, the mass density (298.15 K, m1 = 0.01) was 997.308 ± 0.3 kg/m3, the mass density (298.15 K, m1 = 0.03) was 997.707 ± 0.3 kg/m3 and the mass density (298.15 K, m1 = 0.05) was 998.124 ± 0.3 kg/m3. It also gave a mass density (298.15 K, m1 = 0.07) of 998.513 ± 0.3 kg/m3, a speed of sound (303.15 K, m1 = 0.01) of 1509.3 ± 1 m/s and a speed of sound (303.15 K, m1 = 0.03) of 1510 ± 1 m/s. The speed of sound (303.15 K, m1 = 0.05) was 1510.7 ± 1 m/s, the speed of sound (303.15 K, m1 = 0.07) was 1511.4 ± 1 m/s and the mass density (303.15 K, m1 = 0.01) was 995.869 ± 0.3 kg/m3. It also gave a mass density (303.15 K, m1 = 0.03) of 996.304 ± 0.3 kg/m3, a mass density (303.15 K, m1 = 0.05) of 996.72 ± 0.3 kg/m3 and a mass density (303.15 K, m1 = 0.07) of 997.109 ± 0.3 kg/m3. For the same compound, the speed of sound (308.15 K, m1 = 0.01) was 1519.9 ± 1 m/s, the speed of sound (308.15 K, m1 = 0.03) was 1520.6 ± 1 m/s and the speed of sound (308.15 K, m1 = 0.05) was 1521.2 ± 1 m/s. For the same compound, the speed of sound (308.15 K, m1 = 0.07) was 1521.8 ± 1 m/s, the mass density (308.15 K, m1 = 0.01) was 994.253 ± 0.3 kg/m3 and the mass density (308.15 K, m1 = 0.03) was 994.684 ± 0.3 kg/m3. For the same compound, the mass density (308.15 K, m1 = 0.05) was 995.094 ± 0.3 kg/m3 and the mass density (308.15 K, m1 = 0.07) was 995.469 ± 0.3 kg/m3.

In the case of `O` [water] + OCC(O)CO, the speed of sound (298.15 K, m2 = 0) is reported as 1495.8 ± 1 m/s and the speed of sound (308.15 K, m2 = 0) is reported as 1519.1 ± 1 m/s.
